Laboratory results reported in patent publication US7048907B2, “Synthesis, compositions and methods for the measurement of the concentration of stable-isotope labeled compounds in life forms and life form excretory products” (BioPhysics Assay Laboratory, Inc., priority 2001, dated 2006).

Columns and labels:
[1] = Assay of chelate on carboxymethyl (CM) Sephadex column (chelate formation, charge); format: physicochemical
Protocol: Preparation of carboxymethyl sephadex column. To two 10 ml plastic pipets cut off at the 3 ml mark and plugged with glass wool at the bottom add enough slurry to form a 2 ml volume of the CM sephadex. Wash the packed resin with 6 ml of 1 M Tris buffer pH 7.5, and 6 ml of 0.01M Tris buffer pH 7.5. […] Collect the eluants of fractions as follows. Fraction 1.3 ml of 0.01 M Tris buffer pH 7.5 and allow to drain into column. Fraction 2.1 ml of sample (gadolinium-DTPA or gadolinium chloride) and allow to drain into column. Apply 3 ml of 0.01 M Tris buffer pH 7.5 and allow to drain into column. Fraction 3.3 ml of 0.01M Tris buffer pH 7.5 and allow to drain into column. Dry all fractions at 70° C. for 76 hours, dissolve in 1 ml of 1 mM HCl and assay by atomic absorption.
(§1) Preparation of carboxymethyl Sephadex column. To two 10 ml plastic pipets which had been cut off at the 3 ml mark and plugged with glass wool at the bottom, enough slurry was added to form a 2 ml volume of the CM Sephadex. The packed resin was wash with 6 ml of 1 M Tris buffer pH 7.5, and 6 ml of 0.01M Tris buffer pH 7.5. […] Fractions were applied as follows. Fraction 1. Three ml of 0.01 M Tris buffer pH 7.5 and allow to drain into column. Fraction 2. One ml of sample (samarium-DTPA or samarium chloride) and allow to drain into column. Apply 3 ml of 0.01 M Tris buffer pH 7.5 and allow to drain into column. Fraction 3. Three ml of 0.01M Tris buffer pH 7.5 and allow to drain into column. Collect the eluant of fractions 1 through 3. Fraction 4. Column and contents.
as §1, with “were” for “had been”, “washed” for “wash”, “(lanthanum-DTPA” for “(samarium-DTPA”, “lanthanum” for “samarium”
as §1, with “were” for “had been”, “washed” for “wash”, “(Europium-DTPA” for “(samarium-DTPA”, “Europium” for “samarium”
Preparation of carboxymethyl sephadex column. To a 10 ml plastic pipet cut off at the 3 ml mark and plugged with glass wool at the bottom, add enough slurry to form a 2 ml volume of the CM sephadex. Wash the packed resin with 6 ml of 1 M Tris buffer pH 7.5, and 6 ml of 0.01M Tris buffer pH 7.5. […] Apply fractions as follows. Fraction 1. One ml of sample A and allow to drain into column.

[2] = Stability of chelates in rat serum (CM-Sephadex assay, serum binding); settings: 24 hours in rat serum at room temperature
[3] = Stability of chelates to autoclaving (CM-Sephadex assay); format: physicochemical; settings: for % of total / dpm: autoclaved 30 minutes at 121° C.
Protocol: A sample comprising 5 ml of Sm-DTPA, La-DTPA, and Eu-DTPA prepared in Examples 9, 10, and 11 were placed in 10 ml glass bottles, each capped with a grey butyl rubber cap, and the caps were crimped. Samples were autoclaved for 30 minutes at 121° C.
Five ml of each of Sm-DOTA, La-DOTA, and Eu-DOTA prepared in Examples 13, 14, and 15 were placed in 10 ml glass bottles capped with a grey butyl rubber cap and crimped. Samples were autoclaved for 30 minutes at 121° C. Samples were allowed to cool to room temperature and were assayed as described in Examples 25.

[4] = Kinetics of blood depletion and urine accumulation of chelates in the rat; format: in vivo; settings: ^99mTc-DTPA, Gd-DTPA and Sm-DTPA simultaneously administered (Example 30), average of three rats
Protocol: One half ml of Sm-DTPA (0.01 mg/kg), dissolved in saline (pH 7), is injected into the tail vein of three rats. Samples of blood are obtained at 10, 30 and 60 minutes following injection and analyzed for Sm-DTPA by neutron activation. The percent of starting amount of the Sm-DTPA at each time interval is presented in Table 18 (last column on right). Similarly, the accumulation of Sm-DTPA in the rat urine at two times is shown in the last column of Table 18.
One half ml of Technetium-99m-DTPA (1 millicurie), Gd-DTPA (0.05 mg/kg), and Sm-DTPA (0.01 mg/kg) are each dissolved in saline (pH 7), and are injected simultaneously into the tail vein of three rats. Samples of blood are obtained at 10, 30 and 60 minutes following injection and analyzed for ^99mTc-DTPA (gamma counting), Gd-DTPA (T1 relaxation) and Sm-DTPA (neutron activation).
One half ml of Sm-DTPA, La-DTPA and Eu-DTPA (each 0.01 mg/kg), dissolved in saline (pH 7) are injected simultaneously into the tail vein of three rats. Samples of blood are obtained at 10, 30 and 60 minutes following injection and analyzed for each element by neutron activation.
Samples of Sm-DTPA, La-DTPA and Eu-DTPA (0.5 ml; 0.01 mg/kg), each dissolved in saline (pH 7), are injected sequentially at 0, 20, and 40 minutes into the tail vein of three rats. Samples of blood are obtained at 10, 30 and 60 min following each injection and analyzed for each element by neutron activation.

[5] = Fraction 1: 3 ml 0.01M Tris pH 7.5 before sample
[6] = Fraction 2: 1 ml sample then 3 ml 0.01M Tris pH 7.5 (eluate)
[7] = Fraction 3: further 3 ml 0.01M Tris pH 7.5
[8] = Fraction 4: column and contents (retained)
[9] = Fraction 1: 0.2 ml sample then 2 ml 0.01M Tris pH 7.5 (eluate)
[10] = Fraction 2: 3 ml 0.01M Tris pH 7.5
[11] = Fraction 3: column and contents (retained)
[12] = DOTA chelates, Fraction 1: 1 ml sample diluted 1:10 then 3 ml 0.01M Tris pH 7.5 (eluate)
[13] = DOTA chelates, Fraction 2: further 3 ml 0.01M Tris pH 7.5
[14] = DOTA chelates, Fraction 3: column and contents (retained)
[15] = Fraction 1: sample diluted 1:10 then 2-3 ml 0.01M Tris pH 7.5 (eluate)

[Cl][Eu]([Cl])[Cl] [Europium chloride, reference compound]
% of unchelated ion retained on the column [1]: 100%
% of total [1, 5]: 0 % of total
dpm [1, 5]: 0 dpm
% of total [1, 6]: 0 % of total
dpm [1, 6]: 0 dpm
% of total [1, 7]: 0 % of total
dpm [1, 7]: 0 dpm
% of total [1, 8]: 100 % of total
dpm [1, 8]: 21244 dpm
% of total [2, 9]: 42 % of total
dpm [2, 9]: 2378 dpm
% of total [2, 10]: 5 % of total
dpm [2, 10]: 291 dpm
% of total [2, 11]: 52 % of total
dpm [2, 11]: 2940 dpm

[Cl][La]([Cl])[Cl] [Lanthanum chloride, reference compound]
% of unchelated ion retained on the column [1]: 100%
% of total [1, 5]: 0 % of total
dpm [1, 5]: 0 dpm
% of total [1, 6]: 0 % of total
dpm [1, 6]: 0 dpm
% of total [1, 7]: 0 % of total
dpm [1, 7]: 0 dpm
% of total [1, 8]: 100 % of total
% of total [2, 9]: 49 % of total
dpm [2, 9]: 51651 dpm
% of total [2, 10]: 6 % of total
dpm [2, 10]: 6586 dpm
% of total [2, 11]: 44 % of total
dpm [2, 11]: 46450 dpm

[Cl][Gd]([Cl])[Cl] [Gadolinium chloride, reference compound]
% of unchelated ion retained on the column [1]: 100%
% of total [1, 5]: 0 % of total
% of total [1, 6]: 0 % of total
% of total [1, 7]: 0 % of total

O=C([O-])CN1CCN(CC(=O)[O-])CCN(CC(=O)[O-])CCN(CC(=O)[O-])CC1.[Eu+3] [Eu-DOTA]
% eluted from the CM-Sephadex column [1]: 100%
% of total [1, 12]: 100 % of total
dpm [1, 12]: 391454 dpm
% of total [1, 13]: <1 % of total
dpm [1, 13]: 132 dpm
% of total [1, 14]: 0 % of total
dpm [1, 14]: 0 dpm
% eluted from CM-Sephadex column following autoclaving [3]: 100%
% of total [3, 15]: 100 % of total
dpm [3, 15]: 366651 dpm
% of total [3, 10]: <1 % of total
dpm [3, 10]: 1226 dpm
% of total [3, 11]: 0 % of total
dpm [3, 11]: 0 dpm

O=C([O-])CN1CCN(CC(=O)[O-])CCN(CC(=O)[O-])CCN(CC(=O)[O-])CC1.[Sm+3] [Sm-DOTA]
% eluted from the CM-Sephadex column [1]: 100%
% of total [1, 12]: 98 % of total
dpm [1, 12]: 1429326 dpm
% of total [1, 13]: 2 % of total
dpm [1, 13]: 28850 dpm
% of total [1, 14]: 0 % of total
dpm [1, 14]: 0 dpm
stability to autoclaving [3]: unstable product producing a mixture of Sm-DOTA and unchelated Sm^+3
% of total [3, 15]: 98 % of total
dpm [3, 15]: 1439622 dpm
% of total [3, 10]: 2 % of total
dpm [3, 10]: 27521 dpm
% of total [3, 11]: 0 % of total
dpm [3, 11]: 0 dpm

[Cl][Sm]([Cl])[Cl] [Samarium chloride, reference compound]
% of unchelated ion retained on the column [1]: 100%
% of total [1, 5]: 0 % of total
dpm [1, 5]: 0 dpm
% of total [1, 6]: 0 % of total
dpm [1, 6]: 0 dpm
% of total [1, 7]: 0 % of total
dpm [1, 7]: 0 dpm
% of total [1, 8]: 100 % of total
% of total [2, 9]: 48 % of total
dpm [2, 9]: 104992 dpm
% of total [2, 10]: 3 % of total
dpm [2, 10]: 5702 dpm
% of total [2, 11]: 49 % of total
dpm [2, 11]: 108299 dpm

O=C([O-])CN1CCN(CC(=O)[O-])CCN(CC(=O)[O-])CCN(CC(=O)[O-])CC1.[La+3] [La-DOTA]
% eluted from the CM-Sephadex column [1]: 100%
% of total [1, 12]: 97 % of total
dpm [1, 12]: 410040 dpm
% of total [1, 13]: 3 % of total
dpm [1, 13]: 11681 dpm
% of total [1, 14]: 0 % of total
dpm [1, 14]: 0 dpm
% eluted from CM-Sephadex column following autoclaving [3]: 100%
% of total [3, 15]: 100 % of total
dpm [3, 15]: 400045 dpm
% of total [3, 10]: <1 % of total
dpm [3, 10]: 11 dpm
% of total [3, 11]: 0 % of total
dpm [3, 11]: 0 dpm

Technetium-99m-DTPA [^99mTc-DTPA, reference compound]
Percent of initial injection, blood ([4]; blood 10 min after i.v. injection): 85% of initial injection
Percent of initial injection, blood ([4]; blood 30 min): 63% of initial injection
Percent of initial injection, blood ([4]; blood 60 min): 30% of initial injection
Percent of initial injection, urine ([4]; urine 30 min): 25% of initial injection
Percent of initial injection, urine ([4]; urine 180 min): 92% of initial injection
